Results as given in US8410112B2, “Compounds useful as inhibitors of ATR kinase” (Vertex Pharmaceuticals Incorporated, priority 2008, dated 2013).

Each compound was assayed against T1, full-length ATR (Homo sapiens, UniProt Q13535) (assay: ATR Inhibition Assay (radioactive-phosphate incorporation)). Conditions: Ki(app); 5 nM full-length ATR, 10 μM ATP, 800 μM target peptide, 25° C.
T1 construct: in the presence of 5 nM full-length ATR
Format: biochemical
Method: Test compounds were screened for their ability to inhibit ATR kinase using a radioactive-phosphate incorporation assay. Assays were carried out in a mixture of 50 mM
Tris/HCl (pH 7.5), 10 mM MgCl2 and 1 mM DTT. Final substrate concentrations were 10 μM [γ-33P]ATP (3 mCi 33 P ATP/mmol ATP, Perkin Elmer) and 800 μM target peptide ([…]). Assays were carried out at 25° C. in the presence of 5 nM full-length ATR. An assay stock buffer solution was prepared containing all of the reagents listed above, with the exception of ATP and the test compound of interest. […] The plate was pre-incubated for 10 minutes at 25° C. and the reaction initiated by addition of 15 μL [γ-33P]ATP (final concentration 10 μM).
The reaction was stopped after […] by the addition of 30 μL 0.1M phosphoric acid containing 2 mM ATP. A multiscreen phosphocellulose filter 96-well plate (Millipore, Cat no. MAPHN0B50) was pretreated with 100 μL 0.2M phosphoric acid prior to the addition of 45 μL of the stopped assay mixture. The plate was washed with 5×200 μL 0.2M phosphoric acid.
After removing mean background values for all of the data points, Ki(app) data were calculated from non-linear regression analysis of the initial rate data using the Prism software package (GraphPad Prism version 3.0cx for Macintosh, GraphPad Software, San Diego Calif., USA).

T1 sequence (Q13535 whole entry): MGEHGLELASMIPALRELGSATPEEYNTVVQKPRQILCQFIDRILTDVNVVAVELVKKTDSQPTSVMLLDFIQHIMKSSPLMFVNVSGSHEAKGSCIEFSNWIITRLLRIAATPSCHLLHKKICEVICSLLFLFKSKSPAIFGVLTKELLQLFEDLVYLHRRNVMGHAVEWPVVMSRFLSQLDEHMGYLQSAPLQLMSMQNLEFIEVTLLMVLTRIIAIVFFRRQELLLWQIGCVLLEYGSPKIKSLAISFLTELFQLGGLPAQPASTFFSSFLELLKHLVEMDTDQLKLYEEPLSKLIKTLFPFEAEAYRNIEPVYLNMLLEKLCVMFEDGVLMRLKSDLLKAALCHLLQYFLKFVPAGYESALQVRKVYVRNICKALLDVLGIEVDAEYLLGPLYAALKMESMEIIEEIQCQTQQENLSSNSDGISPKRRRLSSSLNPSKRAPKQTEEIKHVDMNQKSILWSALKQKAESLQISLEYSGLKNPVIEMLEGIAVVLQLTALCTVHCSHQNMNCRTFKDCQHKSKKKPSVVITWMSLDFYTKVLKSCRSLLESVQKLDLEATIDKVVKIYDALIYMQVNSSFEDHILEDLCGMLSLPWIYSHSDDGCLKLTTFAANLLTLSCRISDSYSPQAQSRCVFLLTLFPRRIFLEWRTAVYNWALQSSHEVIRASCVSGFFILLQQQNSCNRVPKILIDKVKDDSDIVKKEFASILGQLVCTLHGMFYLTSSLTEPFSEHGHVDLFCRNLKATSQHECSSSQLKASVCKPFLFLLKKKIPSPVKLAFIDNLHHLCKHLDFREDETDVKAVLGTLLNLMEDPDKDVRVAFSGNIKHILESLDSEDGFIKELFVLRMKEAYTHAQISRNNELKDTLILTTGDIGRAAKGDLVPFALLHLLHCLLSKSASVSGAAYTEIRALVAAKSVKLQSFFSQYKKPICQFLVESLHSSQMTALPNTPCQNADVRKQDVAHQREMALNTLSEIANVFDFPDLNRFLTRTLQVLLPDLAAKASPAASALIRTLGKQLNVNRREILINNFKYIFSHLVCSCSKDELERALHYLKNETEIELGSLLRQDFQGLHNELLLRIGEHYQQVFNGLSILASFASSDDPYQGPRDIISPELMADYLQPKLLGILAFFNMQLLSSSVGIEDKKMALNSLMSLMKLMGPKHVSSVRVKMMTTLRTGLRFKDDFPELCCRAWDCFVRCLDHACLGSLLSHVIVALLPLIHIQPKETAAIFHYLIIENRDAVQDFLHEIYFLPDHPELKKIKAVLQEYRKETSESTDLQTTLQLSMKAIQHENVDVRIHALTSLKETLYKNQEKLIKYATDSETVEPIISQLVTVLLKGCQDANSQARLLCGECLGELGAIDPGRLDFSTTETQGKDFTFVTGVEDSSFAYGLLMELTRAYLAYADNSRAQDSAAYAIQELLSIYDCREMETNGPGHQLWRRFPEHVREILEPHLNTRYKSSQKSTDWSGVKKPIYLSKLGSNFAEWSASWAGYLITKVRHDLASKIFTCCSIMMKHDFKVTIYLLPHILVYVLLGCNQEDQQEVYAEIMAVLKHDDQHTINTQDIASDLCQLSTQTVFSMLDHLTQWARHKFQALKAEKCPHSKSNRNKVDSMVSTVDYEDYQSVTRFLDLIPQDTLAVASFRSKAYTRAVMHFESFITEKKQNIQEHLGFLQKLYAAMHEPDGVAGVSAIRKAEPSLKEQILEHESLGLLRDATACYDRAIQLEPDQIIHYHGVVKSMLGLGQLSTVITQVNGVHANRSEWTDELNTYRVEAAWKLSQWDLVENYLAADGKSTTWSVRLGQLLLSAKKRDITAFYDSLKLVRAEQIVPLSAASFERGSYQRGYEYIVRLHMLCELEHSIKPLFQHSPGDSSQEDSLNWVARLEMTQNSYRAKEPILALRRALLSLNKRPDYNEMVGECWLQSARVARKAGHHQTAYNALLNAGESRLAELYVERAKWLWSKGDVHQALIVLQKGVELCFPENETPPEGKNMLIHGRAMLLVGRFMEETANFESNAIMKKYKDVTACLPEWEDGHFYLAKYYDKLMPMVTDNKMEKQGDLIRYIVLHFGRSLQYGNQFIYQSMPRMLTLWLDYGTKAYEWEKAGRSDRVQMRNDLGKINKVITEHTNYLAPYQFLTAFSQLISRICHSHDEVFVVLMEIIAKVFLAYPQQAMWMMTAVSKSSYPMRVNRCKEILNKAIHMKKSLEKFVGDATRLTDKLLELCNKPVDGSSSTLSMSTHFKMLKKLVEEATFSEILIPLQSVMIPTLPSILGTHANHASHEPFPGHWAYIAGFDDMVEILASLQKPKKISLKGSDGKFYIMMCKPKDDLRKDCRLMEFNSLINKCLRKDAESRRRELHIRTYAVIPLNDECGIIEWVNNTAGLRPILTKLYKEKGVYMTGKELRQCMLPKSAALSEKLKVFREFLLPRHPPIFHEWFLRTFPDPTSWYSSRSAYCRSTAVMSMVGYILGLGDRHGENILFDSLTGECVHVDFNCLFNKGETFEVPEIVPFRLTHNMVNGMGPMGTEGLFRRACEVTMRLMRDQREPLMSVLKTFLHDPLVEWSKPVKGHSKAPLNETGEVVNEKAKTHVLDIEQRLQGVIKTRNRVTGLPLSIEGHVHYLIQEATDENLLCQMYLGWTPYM

Row | Structure (SMILES) | Ki [nM]
1 | Nc1ncc(C2=CCN(C(=O)c3ccccc3)CC2)nc1-c1nnc(-c2ccccc2)o1 [Compound I-103, (4-(5-amino-6-(5-phenyl-1,3,4-oxadiazol-2-yl)pyrazin-2-yl)-5,6-dihydropyridin-1(2H)-yl)(phenyl)methanone] | < 100
2 | Nc1ncc(C2=CCN(S(=O)(=O)c3ccsc3)CC2)nc1-c1nnc(-c2ccccc2)o1 [Compound I-121, 3-(5-phenyl-1,3,4-oxadiazol-2-yl)-5-(1-(thiophen-3-ylsulfonyl)-1,2,3,6-tetrahydropyridin-4-yl)pyrazin-2-amine] | < 100
3 | Cc1ccc2nc(-c3nc(N4CCC(C#N)CC4)cnc3N)[nH]c2c1 [Compound I-34, 1-(5-amino-6-(6-methyl-1H-benzo[d]imidazol-2-yl)pyrazin-2-yl)piperidine-4-carbonitrile] | 1000 to 10000
4 | CC(C)(C)C(=O)N[C@H]1CCN(c2cnc(N)c(-c3nc4ccccc4[nH]3)n2)C1 [Compound I-111, (S)-N-(1-(5-amino-6-(1H-benzo[d]imidazol-2-yl)pyrazin-2-yl)pyrrolidin-3-yl)-2,2-dimethylpropanamide] | 100 to 1000
5 | Nc1ncc(N2CCN(C(=O)Cc3ccccc3)CC2)nc1C(=O)Nc1ccccn1 [Compound I-141, 3-amino-6-(4-(2-phenylethanoyl)piperazin-1-yl)-N-(pyridin-2-yl)pyrazine-2-carboxamide] | 1000 to 10000
6 | CCS(=O)(=O)N1CCN(c2cnc(N)c(-c3nc(-c4ccccc4)no3)n2)CC1 [Compound I-19, 5-(4-(ethylsulfonyl)piperazin-1-yl)-3-(3-phenyl-1,2,4-oxadiazol-5-yl)pyrazin-2-amine] | 100 to 1000
7 | COCC(=O)N1CCN(c2cnc(N)c(C(=O)Nc3ccccn3)n2)CC1 [Compound I-147, 3-amino-6-(4-(2-methoxyethanoyl)piperazin-1-yl)-N-(pyridin-2-yl)pyrazine-2-carboxamide] | 1000 to 10000
8 | Nc1ncc(N2CCN(S(=O)(=O)c3ccsc3)CC2)nc1-c1nc2ccccc2[nH]1 [Compound I-80, 3-(1H-benzo[d]imidazol-2-yl)-5-(4-(thiophen-3-ylsulfonyl)piperazin-1-yl)pyrazin-2-amine] | 100 to 1000
9 | Nc1ncc(C2=CCN(C(=O)c3ccccn3)CC2)nc1-c1nnc(-c2ccccc2)o1 [Compound I-132, (4-(5-amino-6-(5-phenyl-1,3,4-oxadiazol-2-yl)pyrazin-2-yl)-5,6-dihydropyridin-1(2H)-yl)(pyridin-2-yl)methanone] | < 100
10 | CCS(=O)(=O)N1CCN(c2cnc(N)c(-c3cn(-c4ccc(N)cc4)nn3)n2)CC1 [Compound I-160, 3-(1-(4-aminophenyl)-1H-1,2,3-triazol-4-yl)-5-(4-(ethylsulfonyl)piperazin-1-yl)pyrazin-2-amine] | 100 to 1000
11 | CC#CCOC(=O)N1CC=C(c2cnc(N)c(-c3nnc(-c4ccccc4)o3)n2)CC1 [Compound I-115, but-2-ynyl 4-(5-amino-6-(5-phenyl-1,3,4-oxadiazol-2-yl)pyrazin-2-yl)-5,6-dihydropyridine-1(2H)-carboxylate] | < 100
12 | Nc1ncc(N2CCN(S(=O)(=O)Cc3ccccc3)CC2)nc1-c1nnc(-c2ccccc2)o1 [Compound I-99, 5-(4-(benzylsulfonyl)piperazin-1-yl)-3-(5-phenyl-1,3,4-oxadiazol-2-yl)pyrazin-2-amine] | 100 to 1000
13 | CC(C)S(=O)(=O)N1CCN(c2cnc(N)c(-c3nc4ccccc4[nH]3)n2)CC1 [Compound I-97, 3-(1H-benzo[d]imidazol-2-yl)-5-(4-(isopropylsulfonyl)piperazin-1-yl)pyrazin-2-amine] | 100 to 1000
14 | CCS(=O)(=O)N1CCN(c2cnc(N)c(-c3nnc(Nc4ccccc4)o3)n2)CC1 [Compound I-69, 5-(3-amino-6-(4-(ethylsulfonyl)piperazin-1-yl)pyrazin-2-yl)-N-phenyl-1,3,4-oxadiazol-2-amine] | 100 to 1000
15 | Cc1ccc2nc(-c3nc(N4CCN(c5ncccn5)CC4)cnc3N)[nH]c2c1 [Compound I-35, 3-(6-methyl-1H-benzo[d]imidazol-2-yl)-5-(4-(pyrimidin-2-yl)piperazin-1-yl)pyrazin-2-amine] | 1000 to 10000
16 | Cc1ccc2nc(-c3nc(C4=CCN(S(=O)(=O)N(C)C)CC4)cnc3N)[nH]c2c1 [Compound I-23, 4-(5-amino-6-(6-methyl-1H-benzo[d]imidazol-2-yl)pyrazin-2-yl)-N,N-dimethyl-5,6-dihydropyridine-1(2H)-sulfonamide] | < 100

Continued, values first:

Row | Ki [nM] | Structure (SMILES)
17 | 100 to 1000 | Nc1ncc(N2CC[C@H](NC(=O)COc3ccccc3)C2)nc1-c1nc2ccccc2[nH]1 [Compound I-205, (S)-N-(1-(5-amino-6-(1H-benzo[d]imidazol-2-yl)pyrazin-2-yl)pyrrolidin-3-yl)-2-phenoxyethanamide]
18 | 100 to 1000 | CNCc1ccc(-c2nnc(-c3nc(N4CCC[C@@H]4CO)cnc3N)o2)cc1 [Compound I-356, [(2R)-1-[5-Amino-6-[5-[4-(methylaminomethyl)phenyl]-1,3,4-oxadiazol-2-yl]pyrazin-2-yl]pyrrolidin-2-yl]methanol]
19 | 100 to 1000 | Nc1ncc(C2=CCN(C(=O)OCc3ccccc3)CC2)nc1-c1nnc(-c2ccccc2)o1 [Compound I-257, benzyl 4-(5-amino-6-(5-phenyl-1,3,4-oxadiazol-2-yl)pyrazin-2-yl)-5,6-dihydropyridine-1(2H)-carboxylate]
20 | 100 to 1000 | CNCc1ccc(-c2nnc(-c3nc(N4CC[C@H](OC(=O)NCCOC)C4)cnc3N)o2)cc1 [Compound I-373, [(3S)-1-[5-Amino-6-[5-[4-(methylaminomethyl)phenyl]-1,3,4-oxadiazol-2-yl]pyrazin-2-yl]pyrrolidin-3-yl]N-(2-methoxyethyl)carbamate]
21 | 100 to 1000 | COCC(=O)N1CCN(c2cnc(N)c(-c3nnc(-c4ccccc4)o3)n2)CC1 [Compound I-179, 1-(4-(5-amino-6-(5-phenyl-1,3,4-oxadiazol-2-yl)pyrazin-2-yl)piperazin-1-yl)-2-methoxyethanone]
22 | 100 to 1000 | CNCc1ccc(-c2nnc(-c3nc(N4CCC5(C4)CN(S(=O)(=O)C(C)C)C5)cnc3N)o2)cc1 [Compound I-368, 5-(2-(Isopropylsulfonyl)-2,6-diazaspiro[3.4]octan-6-yl)-3-(5-(4-((methylamino)methyl)phenyl)-1,3,4-oxadiazol-2-yl)pyrazin-2-amine]
23 | 100 to 1000 | CCS(=O)(=O)N1CC=C(c2cnc(N)c(C(=O)Nc3cc(C)nn3C)n2)CC1 [Compound I-168, 3-amino-N-(1,3-dimethyl-1H-pyrazol-5-yl)-6-(1-(ethylsulfonyl)-1,2,3,6-tetrahydropyridin-4-yl)pyrazine-2-carboxamide]
24 | 100 to 1000 | Nc1ncc(C2=CCN(C(=O)OCc3ccccc3)CC2)nc1-c1nc2ccccc2[nH]1 [Compound I-261, benzyl 4-(5-amino-6-(1H-benzo[d]imidazol-2-yl)pyrazin-2-yl)-5,6-dihydropyridine-1(2H)-carboxylate]
25 | 100 to 1000 | CN(C)C(=O)N1CCN(c2cnc(N)c(-c3nnc(-c4ccccc4)o3)n2)CC1 [Compound I-218, 4-(5-amino-6-(5-phenyl-1,3,4-oxadiazol-2-yl)pyrazin-2-yl)-N,N-dimethylpiperazine-1-carboxamide]
26 | < 100 | CCC(=O)N1CC=C(c2cnc(N)c(-c3nc4ccccc4[nH]3)n2)CC1 [Compound I-309, 1-[4-[5-amino-6-(1H-benzimidazol-2-yl)pyrazin-2-yl]-3,6-dihydro-2H-pyridin-1-yl]propan-1-one]
27 | 100 to 1000 | Nc1ncc(N2CCN(C(=O)N3CCOCC3)CC2)nc1-c1nnc(-c2ccccc2)o1 [Compound I-216, (4-(5-amino-6-(5-phenyl-1,3,4-oxadiazol-2-yl)pyrazin-2-yl)piperazin-1-yl)(morpholino)methanone]
28 | 100 to 1000 | CCNC(=O)C1[C@H]2CN(c3cnc(N)c(-c4nnc(-c5ccc(CNC)cc5)o4)n3)C[C@@H]12 (stereo partly drawn) [Compound I-350, (1R,5S)-3-[5-Amino-6-[5-[4-(methylaminomethyl)phenyl]-1,3,4-oxadiazol-2-yl]pyrazin-2-yl]-N-ethyl-3-azabicyclo[3.1.0]hexane-6-carboxamide]
29 | 100 to 1000 | CCCS(=O)(=O)N1CCN(c2cnc(N)c(C(=O)Nc3ccccn3)n2)CC1 [Compound I-240, 3-amino-6-(4-(propylsulfonyl)piperazin-1-yl)-N-(pyridin-2-yl)pyrazine-2-carboxamide]
30 | < 100 | Nc1ncc(-n2ccc(=O)cc2)nc1-c1nc2ccccc2[nH]1 [Compound I-311, 1-[5-amino-6-(1H-benzimidazol-2-yl)pyrazin-2-yl]pyridin-4-one]
31 | 100 to 1000 | CCS(=O)(=O)N1CCN(c2cnc(N)c(-c3nnc(-c4ccco4)o3)n2)CC1 [Compound I-297, 5-(4-ethylsulfonylpiperazin-1-yl)-3-[5-(2-furyl)-1,3,4-oxadiazol-2-yl]pyrazin-2-amine]
32 | 100 to 1000 | CCNC(=O)C1CC1c1cnc(N)c(-c2nnc(-c3ccc(CNC)cc3)o2)n1 (stereo not drawn) [Compound I-375, 2-[5-Amino-6-[5-[4-(methylaminomethyl)phenyl]-1,3,4-oxadiazol-2-yl]pyrazin-2-yl]-N-ethyl-cyclopropanecarboxamide]
33 | 1000 to 10000 | CCOC(=O)N1CCN(c2cnc(N)c(-c3nc4ccccc4[nH]3)n2)CC1 [Compound I-271, ethyl 4-(5-amino-6-(1H-benzo[d]imidazol-2-yl)pyrazin-2-yl)piperazine-1-carboxylate]
